# From patent publication US20070053834A1, “Radioligands for the TRP-M8 receptor and methods therewith” (priority 2003, published 2007)
# Columns and labels:
# TRP-M8 receptor [1] = molecular target: T1, TRP-M8 receptor (Homo sapiens, UniProt Q7Z2W7); assay: Patch-clamp whole-cell recordings in TRP-M8 transfected HEK cells; format: cell-based; parameters: expressed in transfected cells; host or cells: HEK (human embryonic kidney) cells, permanently transfected; conditions: whole-cell configuration, room temperature (20-23° C.)
# Excerpt: (§1) Cooling Actions on Skin. […] In Vitro Assays for TRP-M8 Activation. […] Brit. J Pharmacol. 2004 Feb; 141(4):737-45], and by A. K. Vogt-Eisele, D. Bura, H. Hatt, and E. T. Wei. [N-Alkylcarboxamide Cooling Agents: Activities on Skin and Cells with TRPM8 and TRPA1 Receptors. Acta Dermato-Venereol. 85: 468, 2005.] The data here were collected for the applicant by Dr. Afrodite Lourbakos of Unilever Research and Development, the Netherlands, using similar transfection methods and a FLIPR assay system. For the patch-clamp studies, using measurements of intracellular voltage changes, some of the data reported here were collected by Dr. Matthias Bödding of the University of the Saarland, and by Dr. Angela Vogt-Eisele of the Ruhr University at Bochum, Germany. FLIPR assay Human embryonic kidney (HEK) cells were permanently trausfected with plasmids containging the cDNA coding for the gene for the human TRP-M8 receptor. These cells were then incubated with a calcium fluorescence indicator (Fura-2) and incubated at either 29 or 37° C. These cells were then distributed into a 96-well fluorescence-plate image reader with automated drug dilution and computerized software for dose-response analysis. Cacium ion influx into cells after stimulation with compounds was quantified in fluorescence units. Compounds were dissolved in DMSO by ultrasonication to a 0.1 M solution. 5 μl of this stock was added to 5 mg of cyclodextrin and 5 ml of 140 Na-Tyrode, to achieve various final test concentrations.
# Patch-Clamp Electrophysiological Recordings. HEK cells were prepared as above. Membrane currents were recorded in the whole-cell configuration using an EPC-9 amplifier (HEKA Elektronik, Lambrecht, Germany) as described previously (Bödding et al. 2002). […] Extracellular solution contained (in mM): 145 NaCl, 2 CaCl2, 2.8 KCl, 2 MgCl2, 11 glucose, 10 HEPES, adjusted to pH 7.2 with NaOH. Drugs were applied in the bath solution by a custom-made local perfusion system. The series resistance was compensated for 80 % and ranged between 5 and 10 MΩ. Currents were filtered using an 8-pole Bessel filter at 2.9 kHz and digitised at 100 μs. Voltage ramps (−110 mV to 90 mV in 50 ms) were applied at 0.5 Hz from a holding potential of −10 mV using PULSE software (HEKA Electronics). Several parameters such as capacitance, series resistance and holding current were monitored simultaneously at a slower rate (2 Hz) using the X-Chart display (HEKA Electronics). A liquid junction potential of 10 mV was applied to all voltages. All experiments were carried out at room temperature (20-23° C.). Internal solutions were kept on ice to minimize hydrolysis of ATP.
# TRP-M8 receptor [2] = molecular target: T1, TRP-M8 receptor; assay: FLIPR calcium influx assay in HEK cells transfected with human TRP-M8; format: cell-based; parameters: expressed in transfected cells; host or cells: HEK (human embryonic kidney) cells, permanently transfected; conditions: HEK cells with human TRP-M8, Fura-2, 29 or 37° C.
# Excerpt: as §1
# TRP-M8 receptor [3] = molecular target: T1, TRP-M8 receptor; assay: Cold sensation threshold on tongue (filter paper test); format: in vivo; parameters: The endogenous TRP-M8 receptor is a physiological receptor designed to detect temperature changes; from tissue; host or cells: tongue (sensory nerve endings), in vivo; conditions: for Cold Sensation Threshold on Tongue: filter paper 1 × 1 cm impregnated with compound, 30 sec, presence or absence of cooling
# Excerpt: In Vivo Assays for TRP-M8 Activation. The endogenous TRP-M8 receptor is a physiological receptor designed to detect temperature changes in its environment and to transmit this signal to the central nervous system so that appropriate regulatory responses can be initiated (e.g. vasoconstriction to reduce heat loss, putting on warmer clothing, avoiding the cold environment).
# The TRP-M8 receptor on cold sensory nerve endings and on malignant cells, for example in the prostate, are biochemically identical proteins. Thus, the potency of a molecule to elicit cold sensations, for example on the tongue or skin, was used as surrogate index of the binding affinity of the molecule for the TRP-M8 receptor. A number of potent “N-radiohaloaryl-carboxamides” were synthesized and tested for use as precursors of the inventive compounds and the results are shown in Table 1.
# T1 sequence (Q7Z2W7 whole entry): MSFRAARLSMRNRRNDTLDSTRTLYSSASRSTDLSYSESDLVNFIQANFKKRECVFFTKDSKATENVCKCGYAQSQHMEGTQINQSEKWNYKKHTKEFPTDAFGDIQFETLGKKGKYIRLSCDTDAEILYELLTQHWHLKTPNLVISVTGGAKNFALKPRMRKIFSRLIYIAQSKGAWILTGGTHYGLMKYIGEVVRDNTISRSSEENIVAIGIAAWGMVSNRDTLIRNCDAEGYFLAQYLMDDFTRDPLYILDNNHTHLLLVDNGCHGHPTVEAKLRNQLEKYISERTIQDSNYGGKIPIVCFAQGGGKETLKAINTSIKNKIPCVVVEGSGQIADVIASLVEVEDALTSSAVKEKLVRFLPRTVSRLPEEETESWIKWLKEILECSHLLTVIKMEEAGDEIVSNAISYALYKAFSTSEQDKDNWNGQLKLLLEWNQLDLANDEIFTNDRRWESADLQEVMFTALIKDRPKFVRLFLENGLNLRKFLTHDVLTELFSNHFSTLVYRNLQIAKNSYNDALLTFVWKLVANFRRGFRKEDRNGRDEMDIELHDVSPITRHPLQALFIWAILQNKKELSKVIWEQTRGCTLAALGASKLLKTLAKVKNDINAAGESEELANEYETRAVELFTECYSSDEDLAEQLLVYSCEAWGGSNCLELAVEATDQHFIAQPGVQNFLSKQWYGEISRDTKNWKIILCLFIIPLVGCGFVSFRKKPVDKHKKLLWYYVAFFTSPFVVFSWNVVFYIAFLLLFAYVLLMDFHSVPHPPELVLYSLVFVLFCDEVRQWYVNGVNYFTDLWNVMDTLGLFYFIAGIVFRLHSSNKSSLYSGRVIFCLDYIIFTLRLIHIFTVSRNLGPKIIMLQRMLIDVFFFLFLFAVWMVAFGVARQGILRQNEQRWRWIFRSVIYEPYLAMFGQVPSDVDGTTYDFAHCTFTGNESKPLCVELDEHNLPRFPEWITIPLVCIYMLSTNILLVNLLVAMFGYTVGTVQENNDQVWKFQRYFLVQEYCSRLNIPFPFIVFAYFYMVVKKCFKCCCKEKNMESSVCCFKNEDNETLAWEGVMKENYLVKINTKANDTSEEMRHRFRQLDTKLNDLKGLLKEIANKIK
Structure (SMILES),Cold Sensation Threshold on Tongue (TRP-M8 receptor [3]),further results
"CC1CCC(C(C)C)C(C(=O)Nc2ccc(S(=O)(=O)Nc3ncccn3)cc2)C1 (stereo not drawn) [CPS-125, 2-Isopropyl-5-methyl-cyclohexanecarboxylic acid [4-(pyrimidin-2-ylsulfamoyl)-phenyl]-amide]",,EC50 (TRP-M8 receptor [1]): 3000 nM; EC50 (TRP-M8 receptor [2]): 6000 nM
CC1CCC(C(C)C)C(C(=O)NCc2ccccc2)C1 (stereo not drawn) [N-phenylmethyl-2-isopropyl-5-methylcyclohexanecarboxamide],20 µg,
"Cc1ccc(NC(=O)C(C)(C(C)C)C(C)C)c(C)c1 [N-(2′,4′-dimethylphenyl)-2-isopropyl-2,3-dimethylbutyramide]",1 µg,
Cc1ccc(NC(=O)C2CC(C)CCC2C(C)C)cc1O (stereo not drawn) [N-(3′-hydroxy-4′-methylphenyl)-2-isopropyl-5-methylcyclohexanecarboxamide],0.1 µg,
"O=C1NC(c2cccc([N+](=O)[O-])c2)=CCN1c1ccccc1O [icilin, reference compound]",,EC50 (TRP-M8 receptor [1]): 1400 nM; EC50 (TRP-M8 receptor [2]): 800 nM
"Cc1ccc(NC(=O)C(C)(C(C)C)C(C)C)cc1C [N-(3′,4′-dimethylphenyl)-2-isopropyl-2,3-dimethylbutyramide]",3 µg,
CCC1(C(=O)Nc2ccc(OC)cc2)CCCCCC1C (stereo not drawn) [N-(4′-methoxyphenyl)-1-ethyl-2-methylcycloheptanecarboxamide],6 µg,
"COc1ccc(NC(=O)C(C)(C(C)C)C(C)C)cc1 [N-(4′-methoxyphenyl)-2-isopropyl-2,3-dimethylbutyramide]",0.5 µg,
COc1cccc(NC(=O)C2CC(C)CCC2C(C)C)c1 (stereo not drawn) [CPS-141],,EC50 (TRP-M8 receptor [2]): 6000 nM
CCOc1ccc(NC(=O)C2CC(C)CCC2C(C)C)cc1 (stereo not drawn) [CPS-128],,EC50 (TRP-M8 receptor [2]): 500 nM
Cc1ccc(NC(=O)C2(C(C)C)CCCCCC2)cc1O [N-(3′-hydroxy-4′-methylphenyl)-1-isopropylcycloheptanecarboxamide],1 µg,
"Cc1ccc(NC(=O)C2CC(C)CCC2C(C)C)c(C)c1 (stereo not drawn) [N-(2′,4′-dimethylphenyl)-2-isopropyl-5-methylcyclohexanecarboxamide]",0.1 µg,
"CCNC(=O)C1CC(C)CCC1C(C)C (stereo not drawn) [N-ethyl p-menthane-3-carboxamide, reference compound]",,oral cooling threshold (TRP-M8 receptor [3]): 0.2 µg
"COc1ccc(NC(=O)C2CC(C)CCC2C(C)C)c(I)c1 (stereo not drawn) [CPS-129, N-(2′-iodo-4′methoxyphenyl)-2-isopropyl-5-methylcyclohexanecarboxamide]",,EC50 (TRP-M8 receptor [1]): 300 nM
CC1CCC(C(C)C)C(C(=O)Nc2ccc([N+](=O)[O-])c(C(F)(F)F)c2)C1 (stereo not drawn) [CPS-138],,EC50 (TRP-M8 receptor [2]): > 100000 nM
"Cc1ccc(NC(=O)C2(C(C)C)CCCCCC2)cc1C [N-(3′,4′-dimethylphenyl)-1-isopropylcycloheptanecarboxamide]",15 µg,
CCOC(=O)c1ccc(NC(=O)C2CC(C)CCC2C(C)C)cc1 (stereo not drawn) [N-(4′-ethoxycarbonylphenyl)-2-isopropyl-5-methylcyclohexanecarboxamide],5 µg,
CC1CCC(C(C)C)C(C(=O)Nc2ccc(Cl)cc2)C1 (stereo not drawn) [N-(4′-chlorophenyl)-2-isopropyl-5-methylcyclohexanecarboxamide],8 µg,
CC1CCC(C(C)C)C(C(=O)Nc2ccc(Br)cc2)C1 (stereo not drawn) [CPS-123],,EC50 (TRP-M8 receptor [2]): 6000 nM

Structure (SMILES),Cold Sensation Threshold on Tongue (TRP-M8 receptor [3]),further results
CC(=O)c1ccc(NC(=O)C2CC(C)CCC2C(C)C)cc1 (stereo not drawn) [N-(4′-acetylphenyl)-2-isopropyl-5-methylcyclohexanecarboxamide],2 µg,
CC1CCC(C(C)C)C(C(=O)Nc2ccc(I)cc2)C1 (stereo not drawn) [CPS-120],,EC50 (TRP-M8 receptor [2]): 10000 nM
"COc1ccc(NC(=O)C2CC(C)CCC2C(C)C)cc1 (stereo not drawn) [CPS-112 (WS-12), N-(4′-methoxyphenyl)-2-isopropyl-5-methylcyclohexanecarboxamide]",,EC50 (TRP-M8 receptor [1]): 200 nM; EC50 (TRP-M8 receptor [2]): 600 nM
CC1CCC(C(C)C)C(C(=O)Nc2ccc(OC(F)(F)F)cc2)C1 (stereo not drawn) [CPS-127],,EC50 (TRP-M8 receptor [2]): > 100000 nM
"CC1CCC(C(C)C)C(C(=O)N(C)C[C@H](O)c2cccc(O)c2)C1 (stereo partly drawn) [CPS-195, 2-Isopropyl-5-methyl-cyclohexanecaboxylic acid [2-hydroxy-2-(3-hydroxy-phenyl)-ethyl]-methyl-amide]",,EC50 (TRP-M8 receptor [1]): 100 nM
"CNC(=O)C1CC(C)CCC1C(C)C (stereo not drawn) [N-methyl p-menthane-3-carboxamide, reference compound]",,oral cooling threshold (TRP-M8 receptor [3]): 1.1 µg
CC1CCC(C(C)C)C(C(=O)Nc2ccccc2O)C1 (stereo not drawn) [N-(2′-hydroxyphenyl)-2-isopropyl-5-methylcyclohexanecarboxamide],0.5 µg,
"Cc1ccc(NC(=O)C2(C(C)C)CCCCCC2)c(C)c1 [N-(2′,4′-dimethylphenyl)-1-isopropylcycloheptanecarboxamide]",15 µg,
COc1ccc(NC(=O)C2(C(C)C)CCCCCC2)c(C)c1 [N-(4′-methoxy-2′-methylphenyl)-1-isopropylcycloheptanecarboxamide],0.2 µg,
CC1CCC(C(C)C)C(C(=O)Nc2ccc(F)cc2)C1 (stereo not drawn) [N-(4′-fluorophenyl)-2-isopropyl-5-methylcyclohexanecarboxamide],0.5 µg,
"COc1ccc(NC(=O)C2CC(C)CCC2C(C)C)cc1F (stereo not drawn) [CPS-113, N-(3′-fluoro, 4′-methoxyphenyl)-2-isopropyl-5-methyl-cyclohexanecarboxamide]",,EC50 (TRP-M8 receptor [1]): 1200 nM; EC50 (TRP-M8 receptor [2]): 1300 nM
"COc1ccc(NC(=O)C2(C(C)C)CCCCCC2)cc1OC [N-(3′,4′-dimethoxyphenyl)-1-isopropylcycloheptanecarboxamide]",5 µg,
"CC1CCC(C(C)C)C(C(=O)Nc2ccc(F)cc2)C1 (stereo not drawn) [CPS-124, N-(4′-fluorophenyl)-2-isopropyl-5-methylcyclohexanecarboxamide]",,EC50 (TRP-M8 receptor [1]): 1200 nM; EC50 (TRP-M8 receptor [2]): 1300 nM
CC1CCC(C(C)C)C(C(=O)Nc2ccc(O)cc2)C1 (stereo not drawn) [N-(4′-hydroxyphenyl)-2-isopropyl-5-methylcyclohexanecarboxamide],1 µg,
CC1CCC(C(C)C)C(C(=O)Nc2ccccc2)C1 (stereo not drawn) [N-phenyl-2-isopropyl-5-methylcyclohexanecarboxamide],20 µg,
CC1CCC(C(C)C)C(C(=O)Nc2ccc([N+](=O)[O-])cc2)C1 (stereo not drawn) [N-(4′-nitrophenyl)-2-isopropyl-5-methylcyclohexanecarboxamide],0.3 µg,
COc1ccc(NC(=O)C2CC(C)CCC2C(C)C)cc1 (stereo not drawn) [N-(4′-methoxyphenyl)-2-isopropyl-5-methylcyclohexanecarboxamide],0.1 µg,
"COc1ccc(NC(=O)C(C)(CC(C)C)C(C)C)cc1 (stereo not drawn) [N-(4′-methoxyphenyl)-2-isopropyl-2,4-dimethylpentanamide]",2 µg,
